Laboratory results: patent publication US9850216B2 (H. LEE MOFFITT CANCER CENTER AND RESEARCH INSTITUTE, INC., priority 2013, dated 2017)
Where “and” joins values, the source holds several entries; their conditions need not be identical. Identical values can stand only once. Counter-ions that a name gives are not always drawn. Like-named read-outs stand apart in the source and are kept apart here.

Assays:
[1] = target: T1, ACK1 (Homo sapiens, UniProt Q07912); test: ACK1 ELISA: phosphorylation of AKT-derived peptide; assay type: biochemical
T1 sequence (Q07912 whole entry): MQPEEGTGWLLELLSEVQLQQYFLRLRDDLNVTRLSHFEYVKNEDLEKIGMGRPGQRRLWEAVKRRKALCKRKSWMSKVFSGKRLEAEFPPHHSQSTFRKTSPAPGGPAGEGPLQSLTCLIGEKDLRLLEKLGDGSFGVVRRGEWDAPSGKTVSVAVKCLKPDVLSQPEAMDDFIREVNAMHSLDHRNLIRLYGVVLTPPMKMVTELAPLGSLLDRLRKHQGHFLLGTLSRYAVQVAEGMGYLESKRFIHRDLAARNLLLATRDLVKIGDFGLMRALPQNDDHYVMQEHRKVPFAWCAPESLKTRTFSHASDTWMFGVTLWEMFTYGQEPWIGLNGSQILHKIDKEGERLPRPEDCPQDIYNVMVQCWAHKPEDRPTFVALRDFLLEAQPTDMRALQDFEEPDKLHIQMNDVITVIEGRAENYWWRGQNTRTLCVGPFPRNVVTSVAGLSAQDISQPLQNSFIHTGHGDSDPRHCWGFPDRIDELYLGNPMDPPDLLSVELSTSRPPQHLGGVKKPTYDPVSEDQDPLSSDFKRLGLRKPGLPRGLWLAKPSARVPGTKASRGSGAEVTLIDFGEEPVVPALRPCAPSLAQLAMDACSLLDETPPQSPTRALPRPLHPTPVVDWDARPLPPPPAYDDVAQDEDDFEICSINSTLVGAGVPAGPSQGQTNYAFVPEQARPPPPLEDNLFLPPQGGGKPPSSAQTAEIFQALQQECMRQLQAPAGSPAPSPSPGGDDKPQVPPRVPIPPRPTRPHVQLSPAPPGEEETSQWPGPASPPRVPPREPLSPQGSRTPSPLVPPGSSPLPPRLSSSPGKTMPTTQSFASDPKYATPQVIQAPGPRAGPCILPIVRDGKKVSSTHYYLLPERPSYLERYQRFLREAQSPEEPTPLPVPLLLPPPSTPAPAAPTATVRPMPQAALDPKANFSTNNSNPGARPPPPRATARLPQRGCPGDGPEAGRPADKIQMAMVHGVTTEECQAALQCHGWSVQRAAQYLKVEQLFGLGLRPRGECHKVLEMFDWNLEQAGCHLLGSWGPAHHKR

[2] = target: T1, ACK1; test: 32P Hotspot assay (Reaction Biology), ACK1 IC50; assay type: biochemical
Experimental: 8 compounds were tested against […], ACK1, Src and ALK in various combinations. […] Reactions were carried out at 10 μM ATP.

[3] = 10 μM, Table 2, library 9, read-out: % Inhibition @ 10 μM (ELISA)
[4] = 32P hotspot / enzymatic assay, read-out: ACK1 IC50
[5] = 10 μM, Table 1, replicate values listed
[6] = 10 μM, Table 1, replicate values listed, read-out: % Inhibition at 10 μM (ELISA)
[7] = Table 1, unit inferred, (RB) = Reaction Biology, replicates listed, read-out: IC50
[8] = 10 μM, Table 1, replicate values listed, hydrochloride
[9] = Table 1, nM, (RB) = Reaction Biology, replicates listed, read-out: IC50
[10] = Table 2, read-out: IC50 (32P Hotspot assay)
[11] = Table 3, 10-dose, 3-fold dilution from 10 μM, 10 μM ATP, read-out: Compound IC50* (M): ACK1

Compound | % Inhibition at 10 μM (ELISA) [1, 5] | inhibition at 10 µM [1, 6] [%] | melting point | also measured
O=C(O)C1CCN(c2ccc(Nc3ncc(Cl)c(NCC4CCCO4)n3)cc2)CC1 (centres unmarked) [Compound 9e] |  |  |  | inhibition at 10 µM [1, 3]: 93 ± 5.1%; IC50 [2, 4]: 8.5e-08 M
Clc1cnc(Nc2ccc(N3CCOCC3)cc2)nc1NC[C@@H]1CCCO1 [DZ1-074] |  |  |  | IC50 [2, 7]: 7.41e-08 M
O=C(Nc1c(F)cccc1Cl)c1cnc(Nc2ccc(N3CCC(C(=O)O)CC3)cc2)nc1NCC1CCCO1 (centres unmarked) [Compound 9s] |  |  |  | inhibition at 10 µM [1, 3]: 98%; IC50 [2, 4]: 3.4e-08 M and 3.2e-08 M; IC50 [2, 10]: 3.42e-08 M
Cl.Oc1ccc(Nc2ncc(Br)c(NCC3CCCO3)n2)cc1 (centres unmarked) [SK1-028, 4-(5-Bromo-4-((tetrahydrofuran-2-yl)methylamino)pyrimidin-2-ylamino)phenol hydrochloride] |  |  |  | % Inhibition at 10 μM (ELISA) [1, 8]: 59% and 81% and 85% and 65% and 67%; IC50 [2, 11]: 1.64e-07 M
Brc1cnc(Nc2ccc(N3CCNCC3)cc2)nc1NCC1CCCO1 (centres unmarked) [YL9-167, 5-Bromo-N2-(4-(piperazin-1-yl)phenyl)-N4-((tetrahydrofuran-2-yl)methyl)pyrimidine-2,4-diamine TFA salt] |  |  |  | IC50 [2, 11]: 9.47e-08 M
O=C(Nc1c(F)cccc1Cl)c1cnc(Nc2ccc(O)cc2)nc1NCC1CCCO1 (centres unmarked) [YL7-104-2, N-(2-chloro-6-fluorophenyl)-2-(4-hydroxyphenylamino)-4-((tetrahydrofuran-2-yl)methylamino)pyrimidine-5-carboxamide] | 76% | 85 |  | IC50 [2, 9]: 5.44e-08 M
Clc1cnc(Nc2ccc(C3CCNCC3)cc2)nc1NCC1CCCO1 (centres unmarked) [Compound 9f] |  |  |  | inhibition at 10 µM [1, 3]: 79.5 ± 0.7%; IC50 [2, 4]: 2.31e-07 M
Clc1cnc(Nc2ccc(N3CCOCC3)cc2)nc1NC[C@H]1CCCO1 [DZ1-064] |  |  |  | IC50 [2, 7]: 4.65e-08 M
Cc1cc(Nc2ncc(Cl)c(Nc3ccccc3S(=O)(=O)C(C)C)n2)c(OC(C)C)cc1C1CCNCC1 [LDK, reference compound] |  |  |  | IC50 [2, 7]: 8.87e-08 M
COc1ccc(Nc2ncc(C(=O)Nc3c(F)cccc3Cl)c(Nc3ccccc3S(C)(=O)=O)n2)cc1 [YL7-037, N-(2-chloro-6-fluorophenyl)-2-(4-methoxyphenylamino)-4-(2-(methylsulfonyl)phenylamino)pyrimidine-5-carboxamide] | 4% and 0% |  | 267 °C (dec.) | 
O=C(Nc1c(F)cccc1Cl)c1cnc(Nc2ccc(N3CCNCC3)cc2)nc1NCC1CCCO1 (centres unmarked) [YL9-162, N-(2-chloro-6-fluorophenyl)-2-(4-(piperazin-1-yl)phenylamino)-4-((tetrahydrofuran-2-yl)methylamino)pyrimidine-5-carboxamide TFA salt] |  |  |  | % Inhibition at 10 μM (ELISA) ([1]; 10 μM, Table 1, replicate values listed, TFA salt): 88%; inhibition at 10 µM ([1]; read-out: % Inhibition at 10 μM (ELISA), 10 μM, Table 1, replicate values listed): 91%; IC50 [2, 7]: 3.32e-08 M
CCSc1ccccc1Nc1nc(Nc2ccc(OC)cc2)ncc1C(=O)Nc1c(F)cccc1Cl [YL7-058-3, N-(2-chloro-6-fluorophenyl)-4-(2-(ethylthio)phenylamino)-2-(4-methoxyphenylamino)pyrimidine-5-carboxamide] | 1% and 0% |  | 250 °C (dec.) | 
O=C(Nc1c(F)cccc1Cl)c1cnc(Cl)nc1NCC1CCCO1 (centres unmarked) [YL7-102, 2-Chloro-N-(2-chloro-6-fluorophenyl)-4-((tetrahydrofuran-2-yl)methylamino)pyrimidine-5-carboxamide] |  | 0 | 142 °C (dec.) | 
CS(=O)(=O)c1ccccc1Nc1nc(Cl)ncc1C(=O)Nc1c(F)cccc1Cl [YL7-034, 2-Chloro-N-(2-chloro-6-fluorophenyl)-4-(2-(methylsulfonyl)phenylamino)pyrimidine-5-carboxamide] | 16% and −3% and −6% |  | 211 to 214 °C | 
CCS(=O)(=O)c1ccccc1Nc1nc(Nc2ccc(OC)cc2)ncc1C(=O)Nc1c(F)cccc1Cl [YL7-058-1, N-(2-chloro-6-fluorophenyl)-4-(2-(ethylsulfonyl)phenylamino)-2-(4-methoxyphenylamino)pyrimidine-5-carboxamide] | −6% and 0% |  | 263 to 265 °C | 
Cl.O=C(O)c1cc(Nc2ncc(C(=O)Nc3c(F)cccc3Cl)c(NCC3CCCO3)n2)ccc1O (centres unmarked) [YL8-009-2, 5-(5-(2-Chloro-6-fluorophenylcarbamoyl)-4-((tetrahydrofuran-2-yl)methylamino)pyrimidin-2-ylamino)-2-hydroxybenzoic acid hydrochloride] |  | 44 | 298 °C (dec.) | % Inhibition at 10 μM (ELISA) [1, 8]: 40% and 55%
CSc1ccccc1Nc1nc(Cl)ncc1C(=O)Nc1c(F)cccc1Cl [YL7-031B2, 2-Chloro-N-(2-chloro-6-fluorophenyl)-4-(2-(methylthio)phenylamino)pyrimidine-5-carboxamide] |  | 0 | 204 to 206 °C | 
Cl.O=C(O)CCCc1ccc(Nc2ncc(Cl)c(NC[C@H]3CCCO3)n2)cc1 [NT1-026, (R)-4-(4-(5-Chloro-4-((tetrahydrofuran-2-yl)methylamino)pyrimidin-2-ylamino)phenyl)butanoic acid] | 65% | 55 | 180 °C (dec.) | 
CCCSc1ccccc1Nc1nc(Nc2ccc(O)cc2)ncc1C(=O)Nc1c(F)cccc1Cl [YL7-055-4, N-(2-chloro-6-fluorophenyl)-2-(4-hydroxyphenylamino)-4-(2-(propylthio)phenylamino)pyrimidine-5-carboxamide] | 27% | 28 | 208 °C (dec.) | 
Clc1cnc(Nc2ccc(N3CCOCC3)cc2)nc1NCC1CCCO1 (centres unmarked) [Compound 9c] |  |  |  | IC50 [2, 10]: 6.75e-08 M
Cl.Fc1cccc(Nc2ncc(Br)c(NCC3CCCO3)n2)c1 (centres unmarked) [YL7-172-3, 5-Bromo-N2-(3-fluorophenyl)-N4-((tetrahydrofuran-2-yl)methyl)pyrimidine-2,4-diamine hydrochloride] |  |  | 194 to 197 °C | % Inhibition at 10 μM (ELISA) [1, 8]: 69% and 21% and 25%
CC(C)Sc1ccccc1Nc1nc(Nc2ccc(O)cc2)ncc1C(=O)Nc1c(F)cccc1Cl [YL7-045-4, N-(2-chloro-6-fluorophenyl)-2-(4-hydroxyphenylamino)-4-(2-(isopropylthio)phenylamino)pyrimidine-5-carboxamide] |  | 0 | 232 °C (dec.) | 
CSc1ccccc1Nc1nc(Nc2ccc(O)cc2)ncc1C(=O)Nc1c(F)cccc1Cl [YL7-039-2, N-(2-chloro-6-fluorophenyl)-2-(4-hydroxyphenylamino)-4-(2-(methylthio)phenylamino)pyrimidine-5-carboxamide] | 40% and 5% |  | 246 °C (dec.) | 
Cl.O=C(O)CCCc1ccc(Nc2ncc(Cl)c(NC[C@@H]3CCCO3)n2)cc1 [NT1-027, (S)-4-(4-(5-Chloro-4-((tetrahydrofuran-2-yl)methylamino)pyrimidin-2-ylamino)phenyl)butanoic acid] | 64% | 52 | 180 °C (dec.) | 
CCCS(=O)(=O)c1ccccc1Nc1nc(Nc2ccc(OC)cc2)ncc1C(=O)Nc1c(F)cccc1Cl [YL7-055-1, N-(2-chloro-6-fluorophenyl)-2-(4-methoxyphenylamino)-4-(2-(propylsulfonyl)phenylamino)pyrimidine-5-carboxamide] | 27% and 13% |  | 234 to 235 °C | 

Further lines, with some results ahead:

% Inhibition at 10 μM (ELISA) [1, 5] | inhibition at 10 µM [1, 6] [%] | melting point | Compound | also measured
91% | 90 |  | CN1CCN(c2ccc(Nc3ncc(Cl)c(NCC4CCCO4)n3)cc2)CC1 (centres unmarked) [MH1-022-5, 5-chloro-N2-(4-(4-methylpiperazin-1-yl)phenyl)-N4-((tetrahydrofuran-2-yl)methyl)pyrimidine-2,4-diamine] | IC50 ([2]; Table 4, 10-dose, 10 μM ATP, read-out: Compound IC50 (M), ACK1): 5.44e-08 M
94% | 92 |  | O=C(O)C1CCN(c2ccc(Nc3ncc(Cl)c(NC[C@@H]4CCCO4)n3)cc2)CC1 [DZ1-082, (S)-1-(4-(5-chloro-4-((tetrahydrofuran-2-yl)methylamino)pyrimidin-2-ylamino)phenyl)piperidine-4-carboxylic acid] | IC50 [2, 7]: 5.47e-08 M
 | 65 |  | CCOC(=O)C1CCN(c2ccc(Nc3ncc(Cl)c(NCC4CCCO4)n3)cc2)CC1.Cl (centres unmarked) [YL8-047, Ethyl 1-(4-(5-chloro-4-((tetrahydrofuran-2-yl)methylamino)pyrimidin-2-ylamino)phenyl)piperidine-4-carboxylate hydrochloride] | % Inhibition at 10 μM (ELISA) [1, 8]: 67% and 69%; IC50 [2, 9]: 1.08e-07 M
48% | 61 | 86 °C (dec.) | CN1CCN(c2ccc(Nc3ncc(F)c(NCC4CCCO4)n3)cc2)CC1 (centres unmarked) [DZ1-098, 5-fluoro-N2-(4-(4-methylpiperazin-1-yl)phenyl)-N4-((tetrahydrofuran-2-yl)methyl)pyrimidine-2,4-diamine] | 
 |  | 251 °C (dec.) | Cl.NC(=O)c1ccc(Nc2ncc(Br)c(NCC3CCCO3)n2)cc1 (centres unmarked) [YL7-172-5, 4-(5-Bromo-4-((tetrahydrofuran-2-yl)methylamino)pyrimidin-2-ylamino)benzamide hydrochloride] | % Inhibition at 10 μM (ELISA) [1, 8]: 31% and 77% and 82%
 | 56 | 214 °C (dec.) | Cl.NS(=O)(=O)c1ccc(Nc2ncc(Br)c(NCC3CCCO3)n2)cc1 (centres unmarked) [YL8-003-3, 4-(5-Bromo-4-((tetrahydrofuran-2-yl)methylamino)pyrimidin-2-ylamino)benzenesulfonamide hydrochloride] | % Inhibition at 10 μM (ELISA) [1, 8]: 68% and 63%
15% and 5% |  | 145.4 °C (dec.) | Cc1cnc(Nc2ccc(O)cc2)nc1NCC1CCCO1 (centres unmarked) [DZ1-116, 4-(5-methyl-4-((tetrahydrofuran-2-yl)methylamino)pyrimidin-2-ylamino)phenol] | 
